Consider 24 compounds from patent US20190375708A1 (VenatoRx Pharmaceuticals, Inc., priority 2018, published 2019).

Each structure is given as a SMILES string. Where only a bound is given, the exact number is not on record here.

Data set [1] concerns HBV replication in HepAD38 cells. Briefly: Anti-HBV replication assay in HepAD38 cells (QPCR of extracellular HBV DNA). It counts as cell-based, HBV (genotype D, serotype ayw). The settings on record: Hepatitis B virus, 168 h, 7 days incubation, extracellular HBV DNA by QPCR, read-out: Anti-HBV EC50. Summed up:
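HepAD38 cells (HepG2 carrying tet-repressible HBV genotype D genome) induced by tetracycline withdrawal, treated 7 days at 37 °C with compound ([…], 1-log10 dilutions). Extracellular HBV DNA quantified by QPCR against a standard curve, normalised to DMSO; EC50 from 4-parameter fit.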

The nature of data set [2]: In vitro cytotoxicity assay (MTT cell viability) in HepG2 cells. The format is cell-based, human. To be noted: human. The method in brief:
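HepG2 cells incubated 7 days at 37 °C, 5% CO2 with compounds from 30 μM to 1.0 nM (8 half-log dilutions). Viability read as MTT formazan absorbance at 492 nm, normalised to vehicle controls; CC50 from 4-parameter non-linear regression.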

A word on the EC50: it is the concentration giving half of the maximal effect. A word on the CC50: it is the concentration that lowers cell viability or growth by half. Read a high CC50 as better tolerance by the cells.

With `Cc1cc(NC(=O)c2c(C)c(C(=O)C(=O)NC3(c4noc(-c5cccs5)n4)CCCCC3)n(C)c2C)ccc1F` [Example 634], in data set [1], the concentration for a half-maximal effect (EC50) was less than 50 nM. This compound showed a 50% cytotoxic concentration (CC50) at 7 days in data set [2] greater than 30000 nM.
In the same order, the values of `Cc1noc([C@@H](C)NC(=O)C(=O)c2cc(C(=O)Nc3ccc(F)c(C)c3)c3n2CCCC3)n1` [Example 431, (R)-N-(4-fluoro-3-methylphenyl)-3-(2-((1-(3-methyl-1,2,4-oxadiazol-5-yl)ethyl)amino)-2-oxoacetyl)-5,6,7,8-tetrahydroindolizine-1-carboxamide] are 50 to 499 nM and greater than 30000 nM.
Take `Cc1cc(NC(=O)c2c(C)c(C(=O)C(=O)NC(C)(C)CF)n(C)c2C)ccc1F` [Example 6, 5-(2-((1-fluoro-2-methylpropan-2-yl)amino)-2-oxoacetyl)-N-(4-fluoro-3-methylphenyl)-1,2,4-trimethyl-1H-pyrrole-3-carboxamide]: in data set [1], the EC50 was less than 50 nM. Also, the 50% cytotoxic concentration (CC50) at 7 days in data set [2] was greater than 30000 nM.
In the same order, the values of `CC(=O)N[C@H]1C[C@@H](NC(=O)C(=O)c2c(C)c(C(=O)Nc3ccc(F)c(C)c3)c(C)n2C)C1` [Example 668, 5-(2-(((1s,3s)-3-acetamidocyclobutyl)amino)-2-oxoacetyl)-N-(4-fluoro-3-methylphenyl)-1,2,4-trimethyl-1H-pyrrole-3-carboxamide] are less than 50 nM and greater than 30000 nM.
As to `Cc1cc(NC(=O)c2c(C)c(C(=O)C(=O)Nc3nc(CO)cs3)n(C)c2C)ccc1F` [Example 308, N-(4-fluoro-3-methylphenyl)-5-(2-((4-(hydroxymethyl)thiazol-2-yl)amino)-2-oxoacetyl)-1,2,4-trimethyl-1H-pyrrole-3-carboxamide], the EC50 in data set [1] was in the range of 500 to 1000 nM. Moreover, the CC50 at 7 days in data set [2] is greater than 30000 nM.
For `Cc1nc2c(s1)C(NC(=O)C(=O)c1c(C)c(C(=O)Nc3cnc(F)c(C)c3)c(C)n1C)CCC2` (stereo not drawn) [Example 606, N-(6-fluoro-5-methylpyridin-3-yl)-1,2,4-trimethyl-5-(2-((2-methyl-4,5,6,7-tetrahydrobenzo[d]thiazol-7-yl)amino)-2-oxoacetyl)-1H-pyrrole-3-carboxamide], in that order: less than 50 nM and greater than 30000 nM.
In the same order, the values of `Cc1cc(NC(=O)c2c(C)c(C(=O)C(=O)N[C@H]3C4CC5CC3C[C@](O)(C5)C4)n(C)c2C)cnc1F` [Example 122, N-(6-fluoro-5-methylpyridin-3-yl)-5-(2-(((1R,2s,3S,5s,7s)-5-hydroxyadamantan-2-yl)amino)-2-oxoacetyl)-1,2,4-trimethyl-1H-pyrrole-3-carboxamide] are less than 50 nM and greater than 30000 nM.
As to `Cc1c(C(=O)Nc2cccc(C(F)F)c2)c(C)n(C)c1C(=O)C(=O)N[C@H]1CC[C@@H](O)CC1` [Example 690, N-(3-(difluoromethyl)phenyl)-5-(2-(((1s,4s)-4-hydroxycylcohexyl)amino)-2-oxoacetyl)-1,2,4-trimethyl-1H-pyrrole-3-carboxamide], in data set [1], the EC50 is less than 50 nM. The CC50 at 7 days in data set [2] is greater than 30000 nM.
For the compound `C#CCO[C@H]1CC[C@@H](NC(=O)C(=O)c2c(C)c(C(=O)Nc3ccc(F)c(C)c3)c(C)n2C)CC1` [Example 629, N-(4-fluoro-3-methylphenyl)-1,2,4-trimethyl-5-(2-oxo-2-(((1s,4s)-4-(prop-2-yn-1-yloxy)cyclohexxyl)amino)acetyl)-1H-pyrrole-3-carboxamide], the concentration for a half-maximal effect (EC50) in data set [1] was less than 50 nM. The same compound yielded a half-maximal cytotoxic concentration (CC50) at 7 days in data set [2] greater than 30000 nM.
On to `Cc1cc(NC(=O)c2c(C)c(C(=O)C(=O)NC3(c4noc(C(F)F)n4)CCC3)n(C)c2C)ccc1F` [Example 153, 5-(2-((1-(5-(difluoromethyl)-1,2,4-oxadiazol-3-yl)cyclobutyl)amino)-2-oxoacetyl)-N-(4-fluoro-3-methylphenyl)-1,2,4-trimethyl-1H-pyrrole-3-carboxamide], for which the 50% effective concentration (EC50) in data set [1] was less than 50 nM. Moreover, in data set [2], the CC50 at 7 days lay within 5000 to 30000 nM.
In the case of `Cc1cc(NC(=O)c2c(C)c(C(=O)C(=O)NC3(C(F)(F)F)CCOC3)n(C)c2C)ccc1F` (stereo not drawn) [Example 278, N-(4-fluoro-3-methylphenyl)-1,2,4-trimethyl-5-(2-oxo2-((3-(trifluoromethyl)tetrahydrofuran-3-yl)amino)acetyl)-1H-pyrrole-3-carboxamide], in data set [1], the EC50 was less than 50 nM. Also, the CC50 at 7 days in data set [2] is greater than 30000 nM.
With `Cc1cc(NC(=O)c2c(C)c(C(=O)C(=O)N[C@H]3CC[C@@](O)(C(F)(F)F)CC3)n(C)c2C)ccc1F` [Example 207, N-(4-fluoro-3-methylphenyl)-5-(2-(((1r,4r)-4-hydroxy-4-(trifluoromethyl)cyclohexyl)amino)-2-oxoacetyl)-1,2,4-trimethyl-1H-pyrrole-3-carboxamide], the EC50 in data set [1] is less than 50 nM. This compound also gave a CC50 at 7 days in data set [2] greater than 30000 nM.
In the same order, the values of `O=C(NC1(CO)CC(F)(F)C1)C(=O)c1c(Cl)c(C(=O)Nc2ccc(F)c(Cl)c2)c2n1CCCC2` [Example 515, 2-chloro-N-(3-chloro-4-fluorophenyl)-3-(2-((3,3-difluoro-1-(hydroxymethyl)cyclobutyl)amino)-2-oxoacetyl)-5,6,7,8-tetrahydroindolizine-1-carboxamide] are less than 50 nM and 5000 to 30000 nM.
In the case of `Cc1c(C(=O)Nc2ccc(F)c(Cl)c2)c(C)n(C)c1C(=O)C(=O)N[C@H]1CC[C@@H](O)CC1` [Example 251, N-(3-chloro-4-fluorophenyl)-5-(2-(((1s,4s)-4-hydroxycyclohexyl)amino)-2-oxoacetyl)-1,2,4-trimethyl-1H-pyrrole-3-carboxamide], in data set [1], the 50% effective concentration (EC50) is less than 50 nM. In data set [2], this compound registered a CC50 at 7 days greater than 30000 nM.
Consider `COc1c(C(=O)Nc2ccc(F)c(F)c2)c(C)n(C)c1C(=O)C(=O)NC1(C(F)(F)F)CCC1` [Example 378, N-(3,4-difluorophenyl)-4-methoxy-1,2-dimethyl-5-(2-oxo-2-((1-(trifluoromethyl)cyclobutyl)amino)acetyl)-1H-pyrrole-3-carboxamide], for which, in data set [1], the concentration for a half-maximal effect (EC50) is less than 50 nM. In addition, the CC50 at 7 days in data set [2] was greater than 30000 nM.
Regarding `Cc1cc(NC(=O)c2c(C)c(C(=O)C(=O)N[C@@H]3CC[C@@H](O)C3)n(C)c2C)cnc1F` [Example 176, N-(6-fluoro-5-methylpyridin-3-yl)-5-(2-(((1R,3R)-3-hydroxycyclopentyl)amino)-2-oxoacetyl)-1,2,4-trimethyl-1H-pyrrole-3-carboxamide], the half-maximal effective concentration (EC50) in data set [1] is 50 to 499 nM. Further, the CC50 at 7 days in data set [2] was greater than 30000 nM.
For `Cc1cc(NC(=O)c2c(C)c(C(=O)C(=O)NC3(C(N)=O)C4CC5CC(C4)CC3C5)n(C)c2C)ccc1F` (stereo not drawn) [Example 43, 5-(2-(((1r,3r,5r,7r)-2-carbamoyladamantan-2-yl)amino)-2-oxoacetyl)-N-(4-fluoro-3-methylphenyl)-1,2,4-trimethyl-1H-pyrrole-3-carboxamide], in that order: less than 50 nM and 500 to 4990 nM.
Turning to `CNC(=O)[C@@H](NC(=O)C(=O)c1c(C)c(C(=O)Nc2ccc(F)c(C)c2)c(C)n1C)C1CCC1` [Example 124, (S)-5-(2-((1-cyclobutyl-2-(methylamino)-2-oxoethyl)amino)-2-oxoacetyl)-N-(4-fluoro-3-methylphenyl)-1,2,4-trimethyl-1H-pyrrole-3-carboxamide], the 50% effective concentration (EC50) in data set [1] is less than 50 nM. This compound showed a CC50 at 7 days in data set [2] of 5000 to 30000 nM.
As for `Cc1cc(NC(=O)c2c(C)c(C(=O)C(=O)N[C@H]3CNC(=O)C3(C)C)n(C)c2C)ccc1F` [Example 621, (R)-5-(2-((4,4-dimethyl-5-oxopyrrolidin-3-yl)amino)-2-oxoacetyl)-N-(4-fluoro-3-methylphenyl)-1,2,4-trimethyl-1H-pyrrole-3-carboxamide], the concentration for a half-maximal effect (EC50) in data set [1] is less than 50 nM. Besides, the half-maximal cytotoxic concentration (CC50) at 7 days in data set [2] was greater than 30000 nM.
Turning to `Cc1cc(NC(=O)c2c(Cl)c(C(=O)C(=O)N[C@H](C)C(F)(F)F)n3c2CCC3)cnc1F` [Example 576, (R)-6-chloro-N-(6-fluoro-5-methylpyridin-3-yl)-5-(2-oxo-2-((1,1,1-trifluoropropan-2-yl)amino)acetyl)-2,3-dihydro-1H-pyrrolizine-7-carboxamide], in data set [1], the concentration for a half-maximal effect (EC50) was in the range of 50 to 499 nM. This compound also gave a CC50 at 7 days in data set [2] of 5000 to 30000 nM.
Consider `Cc1cc(NC(=O)c2c(C)c(C(=O)C(=O)N[C@@H]3C[C@H](O)[C@H]4OC(C)(C)O[C@H]43)n(C)c2C)ccc1F` [Example 695, N-(4-fluoro-3-methylphenyl)-5-(2-(((3aS,4R,6S,6aR)-6-hydroxy-2,2-dimethyltetrahydro-4H-cyclopenta[d][1,3]dioxol-4-yl)amino)-2-oxoacetyl)-1,2,4-trimethyl-1H-pyrrole-3-carboxamide], for which, in data set [1], the EC50 was less than 50 nM. In data set [2], this compound came in with a cytotoxic concentration (CC50) at 7 days greater than 30000 nM.
For `Cc1cc(NC(=O)c2c(C)c(C(=O)C(=O)N[C@H]3CC[C@@H](O)CC3)n(C)c2C)ccc1F` [Example 137, N-(4-fluoro-3-methylphenyl)-5-(2-(((1s,4s)-4-hydroxycyclohexyl)amino)-2-oxoacetyl)-1,2,4-trimethyl-1H-pyrrole-3-carboxamide], in that order: less than 50 nM and greater than 30000 nM.
For `CC(C)(C)NC(=O)C(=O)c1cc(C(=O)Nc2cc(F)c(F)c(F)c2)c2n1CCCC2` [Example 396, 3-(2-(tert-butylamino)-2-oxoacetyl)-N-(3,4,5-trifluorophenyl)-5,6,7,8-tetrahydroindolizine-1-carboxamide], in that order: 50 to 499 nM and 5000 to 30000 nM.
Consider `Cc1noc([C@H](NC(=O)C(=O)c2c(C)c(C(=O)Nc3ccc(F)c(C)c3)c(C)n2C)C(C)C)n1` [Example 144, (R)-N-(4-fluoro-3-methylphenyl)-1,2,4-trimethyl-5-(2-((2-methyl-1-(3-methyl-1,2,4-oxadiazol-5-yl)propyl)amino)-2-oxoacetyl)-1H-pyrrole-3-carboxamide], for which the half-maximal effective concentration (EC50) in data set [1] is less than 50 nM. Besides, in data set [2], the CC50 at 7 days is greater than 30000 nM.
